The source of these data is patent US8957022B2, “Multimeric tie 2 agonists and uses thereof in stimulating angiogenesis” (Sunnybrook Health Sciences Centre, priority 2006, dated 2015).

For experiment [1], the system named is B6.Cg-m(+/+)Lepr(db)/J (db/db) mice. Nature of the experiment: Excisional wound healing in diabetic mice, topical application. The class given is in vivo, mouse. On the procedure:
Pathogen free, nine week old B6.Cg-m(+/+)Lepr(db)/J (db/db) mice were purchased from Jackson Laboratories. Circular, full excisional, 6 mm diameter wounds were made, according to animal committee approval guidelines, equal distant apart on the dorsal side of the mice. Various factors were suspended in sterile Intrasite Topical Gel (Smith and Nephew) at noted concentrations. Treatments were as follows: Vehicle n=8, bFGF (10 μg/ml) n=8, clustered Vasculotide (20 nM) n=4, clustered Vasculotide (5 nM) n=4. Preparations were applied at day 0 (time of wounding), day 2, 4 and 6. Standardized images were taken on days 0, 2, 4, 6 and 7 using a Canon EOS digital Rebel camera. Image J (NIH) was used to manually outline wound perimeter from which total pixel counts (wound area) were determined. Mice were sacrificed on day 7 and full wound beds including margin were excised and fixed in 4% PFA. Wounds were cut in half at the widest point and each half was prepared for either paraffin or frozen sections. Wax sections were processed according to standard protocols for H&E and Masson's Trichrome stain. Images were captured using a Leica DMLS compound light microscope and Pixel Link camera at 5× and 20×. Student's t test was used to test the statistical significance.
For histological scoring, sections were fixed in 4% paraformaldehyde, embedded in paraffin and sectioned and stained with H & E and Masson's trichrome. Sections were evaluated by a pathologist for re-epithelialization, granulation tissue formation, and inflammation, with criteria used for scoring skin as follows:
• 0—none • 1—minimal (0-20% regrowth from wound margins) • 2—mild (25% to 50% regrowth) • 3—moderate (>50% regrowth, up to 100% but not >2 cells thick along length) • 4—complete regrowth (epithelium>1 cell thick along length, keratinized) Granulation Tissue (GT) and Neovascularization: • 0—none • 1—minimal (1-3 small, isolated islands of GT at margins of defect) • 2—mild (multifocal, patchy islands of GT underlying tissue defect, <10 new blood vessels) • 3—moderate (locally extensive bands of GT underlying length of defect) • 4—marked (dense bands of GT at margins and underlying length of defect with collagen fibrils and numerous blood vessels) Inflammation (within Defect): • 0—none • 1—minimal (a few scattered neutrophils at margins of defect) • 2—mild (multifocal aggregates of up to 5 neutrophils underlying defect) • 3—moderate (multifocal aggregates of up to 10 neutrophils and occasional macrophages, minimal to mild edema) • 4—marked (locally extensive, dense neutrophilic infiltrates with lesser numbers of macrophages, mild-moderate edema)

The target in another experiment is Tie 2 (Homo sapiens, UniProt Q02763). Nature of the experiment: Tie 2 activation (pY992 Tie 2 immunoblot) in HUVEC. More on the design: downstream signalling pathways in human umbilical vein endothelial cells (HUVEC) (Cambrex, N.J.); host or cells: HUVEC, passage 3-9. In kind it is cell-based. The protocol:
Having established that Vasculotide was able to bind Tie 2 (see Example 2), the ability of Vasculotide, when clustered with avidin in a 4:1 ratio (Vasculotide:avidin), to activate the Tie 2 receptor was tested by examining several well established downstream signalling pathways in human umbilical vein endothelial cells (HUVEC) (Cambrex, N.J.). Such signalling pathways are described in, for example, Kim, I. et al. (2000) Circ. Res. 9:952-959; Fujikawa, K. et al. (1999) Exp. Cell. Res. 2:663-672; Babaei, S. et al. (2003) Am. J. Pathol. 6:1927-1936.
HUVEC were grown on 6-well or 10 cm plates (Nunc) coated with gelatin (Sigma). HUVEC were cultured in F12 growth medium containing 10% fetal bovine serum (FBS), 0.1 mg/ml heparin sulphate, 1× penicillin, 1× streptomycin, 1× glutamine, VEGF 10 ng/ml, EGF 10 ng/ml, bFGF 5 ng/ml. All HUVEC were used between passage 3-9.
HUVEC were stimulated with one of either Ang 1 (R&D Systems), Vasculotide, avidin or clustered Vasculotide (preclustered with a 4:1 molar ratio of peptide:avidin in PBS for 2 hours at 4° C.) at various doses. Stimulations with Vasculotide were performed in full serum containing growth media for 15 minutes unless otherwise indicated. Cell lysate preparations and immunoblot analysis were performed by standard methods. Antibodies used for immunoblotting (in this and/or subsequent Examples) were monoclonal anti Tie 2 (Pharminogen), polyclonal anti pY992 Tie 2, (Cell Signaling Technology), polyclonal anti MAPK (Cell Signaling Technology), monoclonal anti phospho MAPK (Cell Signaling Technology), polyclonal anti AKT (Cell Signaling Technology), polyclonal anti pS473 AKT (Cell Signaling Technology), monoclonal anti pS1177 eNOS (BD Biosciences), polyclonal anti pY397 FAK (Biosource), polyclonal anti FAK (Santa Cruz), polyclonal anti smooth muscle actin-Cy3 direct conjugate (Dako), polyclonal anti PECAM (Pharminogen) and polyclonal anti smooth muscle actin (Sigma).
To examine Tie 2 activation kinetics, HUVEC were stimulated with native Ang 1 or clustered Vasculotide for various times. Stimulation was performed in 10% FBS. […] Overall, activation of the receptor by either Ang 1 or clustered Vasculotide followed a very similar time course with phosphorylation returning to almost basal levels sometime after 2 hours.
In general terms: In western blotting, separated proteins are transferred to a membrane and probed.

Chain of Tie 2 (Q02763 23-1124): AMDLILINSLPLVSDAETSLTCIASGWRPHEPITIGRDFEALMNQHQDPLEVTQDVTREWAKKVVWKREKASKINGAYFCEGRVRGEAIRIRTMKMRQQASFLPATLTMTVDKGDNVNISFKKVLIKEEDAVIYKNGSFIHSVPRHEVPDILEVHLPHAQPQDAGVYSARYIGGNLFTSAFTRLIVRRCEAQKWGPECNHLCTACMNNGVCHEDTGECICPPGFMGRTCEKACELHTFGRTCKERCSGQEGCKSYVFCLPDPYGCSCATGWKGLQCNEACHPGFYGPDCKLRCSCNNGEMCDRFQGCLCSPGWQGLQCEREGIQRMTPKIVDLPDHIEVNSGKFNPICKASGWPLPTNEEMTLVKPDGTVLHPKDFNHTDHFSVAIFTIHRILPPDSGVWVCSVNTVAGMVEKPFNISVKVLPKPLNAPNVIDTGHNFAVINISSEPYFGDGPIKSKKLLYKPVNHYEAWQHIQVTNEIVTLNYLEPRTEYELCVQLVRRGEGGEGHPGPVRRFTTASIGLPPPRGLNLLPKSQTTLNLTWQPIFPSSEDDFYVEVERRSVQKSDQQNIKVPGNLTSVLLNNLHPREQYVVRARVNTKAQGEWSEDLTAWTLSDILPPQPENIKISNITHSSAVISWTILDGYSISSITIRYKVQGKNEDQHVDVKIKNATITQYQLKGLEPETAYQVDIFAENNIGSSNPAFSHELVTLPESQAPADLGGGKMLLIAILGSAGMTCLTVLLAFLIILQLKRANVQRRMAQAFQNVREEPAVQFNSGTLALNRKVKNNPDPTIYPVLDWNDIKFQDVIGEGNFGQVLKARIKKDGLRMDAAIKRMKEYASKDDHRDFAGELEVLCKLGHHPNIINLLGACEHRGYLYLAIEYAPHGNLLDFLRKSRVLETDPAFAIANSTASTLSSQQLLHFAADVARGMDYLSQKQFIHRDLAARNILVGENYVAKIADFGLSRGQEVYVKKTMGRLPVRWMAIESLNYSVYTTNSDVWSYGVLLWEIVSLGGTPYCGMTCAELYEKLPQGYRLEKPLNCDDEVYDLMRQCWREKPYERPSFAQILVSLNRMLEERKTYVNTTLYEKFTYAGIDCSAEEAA

For the substance “Vasculotide: biotinylated T7 peptide-PEG: Cys-His-His-His-Arg-His-Ser-Phe (SEQ ID NO: 2) conjugated to EZ-link-PEO-maleimide-biotin”, the “Granulation tissue production (H&E and MT staining)” value in experiment [1] (day 7 wound sections) is on record as “dramatic increases in granulation tissue production”. For the same substance, the “Tie 2 phosphorylation without preclustering” value with Tie 2 (avidin alone and unclustered Vasculotide) is on record as “only when preclustered with avidin was Vasculotide able to stimulate Tie 2 phosphorylation”.
Regarding “clustered Vasculotide: Vasculotide clustered with avidin in a 4:1 ratio, an obligate tetrameric compound”, in experiment [1] (5 nM versus 20 nM), the “Benefit at lower concentration” value was “seemed to offer more benefit”. The “Inflammation (histological score)” value in experiment [1] (5 nM, p=0.0979) is given as “not significantly different from vehicle”; in experiment [1] (20 nM, p=0.034), “only slightly increased”. Also, the “Regranulation and neovascularization (histological score)” value in experiment [1] (20 nM and 5 nM p=0.0006) is “profound increases in regranulation and neovascularization”. The “Wound margin (pixel counts) at day 2” value in experiment [1] (20 nM topical, p=0.05, n=4) is listed as “Significant decreases in wound margin”. Also, the “Re-epithelialization (histological score)” value in experiment [1] (20 nM, p=0.0004 and 5 nM, p=0.029) is reported as “delayed re-epithelialization”. For the same substance, the “Overall collagen deposition (Masson's Trichrome)” value in experiment [1] (both concentrations, compared to vehicle and bFGF) was “dramatically increased”. Besides, the “Lymphangiogenesis (podoplannin-positive vessels)” value in experiment [1] (immunohistochemistry) was “not accompanied by an increase in lymphangiogenesis”. In experiment [1] (immunohistochemistry, 5 nM and 20 nM), the “PECAM1- and Pan EC-positive vessels within the granulation tissue” value is “dramatic increases in the number of PECAM1- and Pan EC-positive vessels”. Also, the “Margin closure for the duration of the assay” value in experiment [1] (topical, days 0-7) is given as “continued at an accelerated pace”. In the experiment with Tie 2 (2 nM, 10% FBS), the “Ability to activate Tie 2 phosphorylation, time course, versus Ang 1 (400 ng/ml)” value is given as “compared favorably to Ang 1”. Further, the “Tie 2 receptor activation at high concentration” value with Tie 2 (50 nM) is reported as “not capable of activating Tie 2 receptor activity”. Besides, the “Optimal concentration for Tie 2 activation (pY992 Tie 2)” value in the experiment with Tie 2 (15 minutes) is 5-10 nM.
